# Target: T1, human PRMT1 (Homo sapiens, UniProt Q99873)
# T1 construct: GST-tagged PRMT1; made in house; host or cells: High Five insect cells (baculovirus)
# Experiment: PRMT1 Biochemical Assay (3H-SAM Flashplate, peptide substrate)
# Conditions: single experiment or average of multiple experiments
# Summary of the method: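 GST-tagged PRMT1 from baculovirus-infected cells, preincubated with compounds 30 min at room temperature in 20 mM Bicine pH 7.6, 1 mM TCEP, 0.005% BSG, 0.002% Tween 20. Reaction started with ³H-SAM plus biotinylated peptide, stopped with 300 µM cold SAM.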
# T1 sequence (Q99873 with tags, fused parts or gaps): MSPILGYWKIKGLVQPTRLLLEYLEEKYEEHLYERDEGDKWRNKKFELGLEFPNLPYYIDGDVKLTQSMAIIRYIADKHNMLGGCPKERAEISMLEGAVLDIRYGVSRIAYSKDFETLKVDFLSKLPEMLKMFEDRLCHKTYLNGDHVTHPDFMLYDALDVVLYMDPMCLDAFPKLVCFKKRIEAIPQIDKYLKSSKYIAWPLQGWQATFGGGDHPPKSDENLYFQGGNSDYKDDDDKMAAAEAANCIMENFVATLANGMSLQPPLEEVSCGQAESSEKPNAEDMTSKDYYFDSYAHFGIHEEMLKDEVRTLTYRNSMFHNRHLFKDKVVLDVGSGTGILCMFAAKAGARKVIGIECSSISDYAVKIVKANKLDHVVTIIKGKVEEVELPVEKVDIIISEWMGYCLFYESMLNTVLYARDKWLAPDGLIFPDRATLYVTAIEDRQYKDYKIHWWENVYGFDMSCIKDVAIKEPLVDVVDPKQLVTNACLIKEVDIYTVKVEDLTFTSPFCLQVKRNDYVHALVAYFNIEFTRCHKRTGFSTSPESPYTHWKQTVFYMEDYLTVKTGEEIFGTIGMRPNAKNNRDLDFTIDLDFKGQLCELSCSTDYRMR
row,Compound,IC50 [µM]
1,"CNCCN(C)Cc1c[nH]nc1-c1ccc(F)cc1 [Compound 2, N^1-((3-(4-fluorophenyl)-1H-pyrazol-4-yl)methyl)-N^1,N^2-dimethylethane-1,2-diamine]",0.0576
2,CNCCN(C)Cc1c[nH]nc1-c1ccccc1C(F)(F)F [Compound 38],1.83
3,CNCCN(C)Cc1c[nH]nc1-c1ccccc1-c1ccccc1 [Compound 46],2.5
4,CNCCN(C)Cc1c[nH]nc1-c1c(OC)cccc1OC [Compound 56],5.85
5,CCCN(CCN)Cc1c[nH]nc1-c1ccc(F)cc1 [Compound 63],1.54
6,"CNCCN(C)Cc1c[nH]nc1-c1cc(C(C)C)cc(C(C)C)c1 [Compound 229, N^1-((3-(3,5-diisopropylphenyl)-1H-pyrazol-4-yl)methyl)-N^1,N^2-dimethylethane-1,2-diamine]",0.0597
7,CNCCN(C)Cc1c[nH]nc1-c1ccc(Oc2cccc(OC)c2)cc1 [Compound 230],0.00343
8,CNCCN(C)Cc1c[nH]nc1-c1ccc(Oc2cccc(F)c2)cc1 [Compound 231],0.00408
9,CNCCN(C)Cc1c[nH]nc1-c1ccc(Oc2ccccc2)c(C(=O)NC)c1 [Compound 232],0.025
10,CNCCN(C)Cc1c[nH]nc1-c1ccc(Oc2ccccc2)c(C(=O)N(C)C)c1 [Compound 233],0.0293
11,CC(C)Cc1cccc(-c2n[nH]cc2CN(C)CCN)c1 [Compound 235],0.00835
12,CNCCN(C)Cc1c[nH]nc1-c1ccc(OCCCO)cc1 [Compound 236],0.00917
13,CNCCN(C)Cc1c[nH]nc1-c1ccc(Oc2ccccc2F)cc1 [Compound 237],0.00206
14,CNCCN(C)Cc1n[nH]cc1-c1ccc(Oc2cccc(OC)c2)cc1 [Compound 239],0.00251
15,CNCCN(C)Cc1n[nH]cc1-c1ccc(Oc2ccccc2)c(C(=O)NC)c1 [Compound 240],0.0382
16,CNCCN(C)Cc1n[nH]cc1-c1ccc(Oc2ccccc2)c(C(=O)N(C)C)c1 [Compound 241],0.0522
17,CNCCN(C)Cc1n[nH]cc1-c1cc(C(C)C)cc(C(C)C)c1 [Compound 242],0.376

row,Compound,IC50 [µM]
1,CNCCN(C)Cc1cn(Cc2ccncc2)nc1-c1ccc(OC(C)C)cc1 [Compound 245],0.0353
2,CNCCN(C)Cc1cn(CC(=O)O)nc1-c1ccc(OC(C)C)cc1 [Compound 250],0.737
3,C=C(C)C(=O)Nc1cccc(-c2[nH]ncc2CN(C)CCNC)c1 [Compound 257],0.135
4,CN(CCN)Cc1c[nH]nc1-c1ccc(Oc2ccccc2F)cc1 [Compound 259],0.00132
5,CNCCN(C)Cc1c[nH]nc1-c1cc(OC(C)C)cc(C(C)C)c1 [Compound 260],0.0239
6,CNCCN(C)Cc1c[nH]nc1-c1ccc(Oc2cccc(C#N)c2)cc1 [Compound 261],0.00294
7,CNCCN(C)Cc1c[nH]nc1-c1ccc(Oc2cccc(C(C)C)c2)cc1 [Compound 262],0.00563
8,"CNCCN(C)Cc1c[nH]nc1-c1cc(Cl)c(OC(C)C)c(Cl)c1 [Compound 265, N^1-((3-(3,5-dichloro-4-isopropoxyphenyl)-1H-pyrazol-4-yl)methyl)-N^1,N^2-dimethylethane-1,2-diamine]",0.00567
9,CNCCN(C)Cc1nn(C)cc1-c1ccc(OCCCOC)cc1 [Compound 266],0.176
10,CNCCN(C)Cc1n[nH]cc1-c1ccc(Oc2cccc(C#N)c2)cc1 [Compound 267],0.00347
11,CNCCN(C)Cc1n[nH]cc1-c1ccc(Oc2cccc(C(=O)NC)c2)cc1 [Compound 268],0.00458
12,CNCCN(C)Cc1n[nH]cc1-c1ccc(Oc2cccc(F)c2)cc1 [Compound 270],0.00279
13,CNCCN(C)Cc1n[nH]cc1-c1cc(CC(C)C)cc(CC(C)C)c1 [Compound 271],0.0524
14,CNCCN(C)Cc1n[nH]cc1-c1cc(OC(C)C)cc(C(C)C)c1 [Compound 272],0.156
15,CNCCN(C)Cc1n[nH]cc1-c1cc(Cl)c(OC(C)C)c(Cl)c1 [Compound 273],0.00856
16,CNCCN(C)Cc1c[nH]nc1-c1ccc(Oc2ccccc2C(=O)NC)cc1 [Compound 274],0.0193

# — patent publication US9776972B2, “Pyrazole derivatives as arginine methyltransferase inhibitors and uses thereof” (priority 2013, dated 2017)
